Values after ≈ are worked out from the molar mass of the structure shown. Values joined by “and” are separate entries in the source; they are usually repeats but may differ in a detail not shown here. Equal entries are not always repeated.
Tests used:
GPR139 = biological target: T1, GPR139 (Homo sapiens, UniProt Q6DWJ6); test: Ca2+ mobilization assay, HEK293A cells transiently expressing GPR139; assay type: cell-based; details: for Emax: HEK293-A, normalized to JNJ-63533054 (JNJ(S)); for Emax / EC50: HEK293A transient; for EC50: Supplementary Table 6, read-out: pEC50 Ca2+ (converted); for Ca2+ signal (% of JNJ-63533054): replicate experiments
T1 sequence (Q6DWJ6 1-353): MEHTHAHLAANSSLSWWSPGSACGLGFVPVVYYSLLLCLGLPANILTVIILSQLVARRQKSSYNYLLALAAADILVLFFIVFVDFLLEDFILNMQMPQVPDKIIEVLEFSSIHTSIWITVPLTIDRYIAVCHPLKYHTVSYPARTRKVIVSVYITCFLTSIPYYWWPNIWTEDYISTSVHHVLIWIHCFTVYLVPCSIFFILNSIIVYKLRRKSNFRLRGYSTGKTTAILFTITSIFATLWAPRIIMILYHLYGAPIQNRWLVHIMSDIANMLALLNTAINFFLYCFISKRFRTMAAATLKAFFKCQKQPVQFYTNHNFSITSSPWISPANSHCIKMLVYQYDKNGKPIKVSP
Description: Primary screening and pharmacological characterization of compounds were performed using a CHO-K1 cell line that stably expresses human GPR139 (GPR139-CHOk1). The GPR139-CHOk1 cell line was kindly provided by H. Lundbeck A/S, Denmark[24]. GPR139-CHOk1 cells were grown in Ham’s F-12 Kaighn’s Modification Medium (ThermoFisher #21127030) supplemented with 10% dialyzed fetal bovine serum (US origin, ThermoFisher #26400044), 100 units/mL Penicillin-Streptomycin (ThermoFisher #15140122), and 1 mg/mL Geneticin (ThermoFisher #11811031). […] M1R-CHOk1 cells were purchased from The Missouri S&T cDNA Resource Center (#CEM100TN00). M1R-CHOk1 cells were grown in Ham’s F12 Medium (ThermoFisher #21765029) supplemented with 10% fetal bovine serum (Brazilian origin, ThermoFisher #10270106), 100 units/mL Penicillin-Streptomycin, and 0.25 mg/mL Geneticin. HEK293A cells transiently transfected with GPR139 were used for additional pharmacological assessment of signaling pathways activated by GPR139. HEK239A cells were generously provided by Dr. Asuka Inoue, Tohoku University, Japan. HEK293A cells were grown in Dulbecco’s Modified Eagle Medium (ThermoFisher #31966047) supplemented with 10% dialyzed fetal bovine serum and 100 units/mL Penicillin-Streptomycin. Cell lines were maintained at 37 °C in humidified incubator equilibrated with 5% CO2.
30,000 GPR139- or M1R-CHOk1 cells/well were seeded in black clear bottom tissue culture treated 96-well plates (Greiner #655090) and grown for 20–24 h. Cells were washed with HEPES buffer (Hank’s Balanced Salt Solution (HBBS) supplemented with 20 mM HEPES, 1 mM MgCl2, and 1 mM CaCl2; pH 7.4). Cells were loaded with 50 µL of 2 µM Fluo-4 AM dye (ThermoFisher #F14202) in HEPES buffer supplemented with 2.5 mM probenecid and 0.01% Pluronic F-68 (ThermoFisher #24040032) for 1 h at 37 °C. Cells were washed with HEPES buffer. 50 µL HEPES buffer supplemented with 2.5 mM probenecid was added, and the cells were incubated for 10 min at 37 °C before measurement. 50 µL test compounds diluted in HEPES buffer from DMSO stocks (final DMSO concentration of maximally 0.3%) were added automatically after baseline measurements. The intracellular calcium mobilization was measured on a FlexStation 3 Multimode Microplate Reader (Molecular Devices) at 37 °C with filters for excitation of 485 nm and emission of 525 nm.
HEK293A cells were reverse-transfected with human GPR139 for Ca^2+ mobilization experiments with transiently expressed GPR139. The construct has been generated and described previously by Nøhr et al.. DNA and Lipofectamine 2000 Transfection Reagent (ThermoFisher #11668019) were separately diluted in Opti-MEM I Reduced Serum Medium (ThermoFisher #31985070). 10 ng GPR139 DNA and 250 nL Lipofectamine were used for each well. The dilutions were incubated at room temperature for 5 min. Then, DNA and Lipofectamine dilutions were combined in 1:1 volumetric ratio and incubated at room temperature for 20 min to obtain the transfection solutions. 10 µL transfection solution and 20,000 cells in 100 µL growth medium were distributed in each well of black clear bottom tissue culture treated 96-well plates that were previously coated with poly-D-lysine (Sigma-Aldrich #P0899). Cells were grown for approximately 48 h. A calcium mobilization assay was performed as described.
Pharmacological data and statistical analyses were performed in GraphPad Prism v9–10 (Graphpad Software Inc., San Diego, CA), which are also specifically described in the figure and table legends. The functional assay responses were normalized to buffer (0%) and Lundbeck Cmp 1a or JNJ-63533054 (100%), for Ca^2+ and IP1 experiments in the GPR139-CHOk1 stable cell line or Ca^2+, G protein activation, and arrestin-3 recruitment experiments in the HEK293A cells transiently transfected with GPR139, respectively. Data are from at least three independent experiments, unless stated otherwise. […]

Kinetic solubility = assay type: physicochemical; details: aqueous buffer, kinetic from dmso stock; 100 mM potassium phosphate buffer, 37 °C
Description: Test compound was added to 100 mM potassium phosphate buffer and incubated at 37 °C for at least 20 h in a heater-shaker. After incubation, the samples were centrifuged at 3000 × g at 37 °C for 30 min to pellet insoluble material and an aliquot of the supernatant was taken for analysis. After dilution of the sample, the concentration of dissolved compound was quantified by liquid chromatography coupled to triple quadrupole mass spectrometry (LC-MS/MS).

Compound	Emax (GPR139)	EC50 (GPR139)	solubility kinetic (Kinetic solubility)	Ca2+ signal (% of JNJ-63533054) (GPR139; log [Compound] M -5.0)	Ca2+ signal (% of JNJ-63533054) (GPR139; log [Compound] M -5.5)	Ca2+ signal (% of JNJ-63533054) (GPR139; log [Compound] M -6.0)	Ca2+ signal (% of JNJ-63533054) (GPR139; log [Compound] M -6.5)	Ca2+ signal (% of JNJ-63533054) (GPR139; log [Compound] M -7.0)	Ca2+ signal (% of JNJ-63533054) (GPR139; log [Compound] M -7.5)	Ca2+ signal (% of JNJ-63533054) (GPR139; log [Compound] M -8.0)	Ca2+ signal (% of JNJ-63533054) (GPR139; log [Compound] M -8.5)	Ca2+ signal (% of JNJ-63533054) (GPR139; log [Compound] M -9.0)	also measured
Cc1cscc1-c1nc(CC(=O)N[C@H](C)c2ccccc2)no1 [1.1(R)]	139 ± 24%	398 nM		181 % of JNJ-63533054 and 86 % of JNJ-63533054 and 180 % of JNJ-63533054	143 % of JNJ-63533054 and 96 % of JNJ-63533054 and 154 % of JNJ-63533054	90 % of JNJ-63533054 and 77 % of JNJ-63533054 and 95 % of JNJ-63533054	70 % of JNJ-63533054 and 52 % of JNJ-63533054 and 66 % of JNJ-63533054	15 % of JNJ-63533054 and 41 % of JNJ-63533054 and 28 % of JNJ-63533054	-6.33 % of JNJ-63533054 and 15 % of JNJ-63533054 and 7 % of JNJ-63533054	-9 % of JNJ-63533054 and 14 % of JNJ-63533054 and -7 % of JNJ-63533054	4 % of JNJ-63533054 and 2.33 % of JNJ-63533054 and -0.667 % of JNJ-63533054	8 % of JNJ-63533054 and 0.333 % of JNJ-63533054 and -15 % of JNJ-63533054	
Cc1cscc1-c1nc(CC(=O)N[C@@H](C)c2ccccc2)no1 [1.1(S)]	146 ± 16%	12.6 nM	13 µM (≈ 4.26 µg/mL)	135 % of JNJ-63533054 and 150 % of JNJ-63533054	108 % of JNJ-63533054 and 167 % of JNJ-63533054	164 % of JNJ-63533054 and 119 % of JNJ-63533054 and 118 % of JNJ-63533054	143 % of JNJ-63533054 and 116 % of JNJ-63533054 and 108 % of JNJ-63533054	137 % of JNJ-63533054 and 106 % of JNJ-63533054 and 101 % of JNJ-63533054	103 % of JNJ-63533054 and 92 % of JNJ-63533054 and 129 % of JNJ-63533054	70 % of JNJ-63533054 and 74 % of JNJ-63533054 and 57 % of JNJ-63533054	28 % of JNJ-63533054 and 33 % of JNJ-63533054 and 37 % of JNJ-63533054	29 % of JNJ-63533054 and 19 % of JNJ-63533054 and 13 % of JNJ-63533054	

The next lines start with results.

Emax (GPR139)	EC50 (GPR139)	solubility kinetic (Kinetic solubility)	Compound	Ca2+ signal (% of JNJ-63533054) (GPR139; log [Compound] M -5.0)	Ca2+ signal (% of JNJ-63533054) (GPR139; log [Compound] M -5.5)	Ca2+ signal (% of JNJ-63533054) (GPR139; log [Compound] M -6.0)	Ca2+ signal (% of JNJ-63533054) (GPR139; log [Compound] M -6.5)	Ca2+ signal (% of JNJ-63533054) (GPR139; log [Compound] M -7.0)	Ca2+ signal (% of JNJ-63533054) (GPR139; log [Compound] M -7.5)	Ca2+ signal (% of JNJ-63533054) (GPR139; log [Compound] M -8.0)	Ca2+ signal (% of JNJ-63533054) (GPR139; log [Compound] M -8.5)	Ca2+ signal (% of JNJ-63533054) (GPR139; log [Compound] M -9.0)	also measured
		24 µM (≈ 7.5 µg/mL)	Cc1nocc1-c1nc(CC(=O)NC(C)c2ccccc2)no1 (stereo not shown) [Compound 1.5, CC(C1=CC=CC=C1)NC(CC2=NOC(C3=CON=C3C)=N2)=O]										
101 ± 18%	1260 nM		C[C@@H](NC(=O)CNC(=O)c1cccc(Cl)c1)c1ccccc1 [JNJ(R), reference compound]	95 % of JNJ-63533054 and 63 % of JNJ-63533054 and 134 % of JNJ-63533054	58 % of JNJ-63533054 and 81 % of JNJ-63533054 (2×)	27 % of JNJ-63533054 and 52 % of JNJ-63533054 and 38 % of JNJ-63533054	14 % of JNJ-63533054 and 29 % of JNJ-63533054 and 4.33 % of JNJ-63533054	7 % of JNJ-63533054 and 9 % of JNJ-63533054 and -10 % of JNJ-63533054	5 % of JNJ-63533054 and 9 % of JNJ-63533054 and -13 % of JNJ-63533054	-3.33 % of JNJ-63533054 and 8 % of JNJ-63533054 and -14 % of JNJ-63533054	-0.667 % of JNJ-63533054 and 11 % of JNJ-63533054 and -10 % of JNJ-63533054	-2.67 % of JNJ-63533054 and 15 % of JNJ-63533054 and -6 % of JNJ-63533054	
133 ± 14%	15.8 nM		CC(NC(=O)CNC(=O)c1cccc(Cl)c1)c1ccccc1 (stereo not shown) [JNJ-63533054, reference compound]										Ca2+ signal (% of JNJ-63533054) (GPR139; log [Compound] M -5.0, listed as JNJ (S)): 174 % of JNJ-63533054 and 107 % of JNJ-63533054 and 106 % of JNJ-63533054; Ca2+ signal (% of JNJ-63533054) (GPR139; log [Compound] M -5.5, listed as JNJ (S)): 140 % of JNJ-63533054 and 98 % of JNJ-63533054 and 168 % of JNJ-63533054; Ca2+ signal (% of JNJ-63533054) (GPR139; log [Compound] M -6.0, listed as JNJ (S)): 143 % of JNJ-63533054 and 109 % of JNJ-63533054 and 138 % of JNJ-63533054; Ca2+ signal (% of JNJ-63533054) (GPR139; log [Compound] M -6.5, listed as JNJ (S)): 110 % of JNJ-63533054 and 107 % of JNJ-63533054 and 98 % of JNJ-63533054; Ca2+ signal (% of JNJ-63533054) (GPR139; log [Compound] M -7.0, listed as JNJ (S)): 101 % of JNJ-63533054 and 88 % of JNJ-63533054 and 92 % of JNJ-63533054; Ca2+ signal (% of JNJ-63533054) (GPR139; log [Compound] M -7.5, listed as JNJ (S)): 90 % of JNJ-63533054 and 115 % of JNJ-63533054 and 68 % of JNJ-63533054; Ca2+ signal (% of JNJ-63533054) (GPR139; log [Compound] M -8.0, listed as JNJ (S)): 51 % of JNJ-63533054 and 82 % of JNJ-63533054 and 41 % of JNJ-63533054; Ca2+ signal (% of JNJ-63533054) (GPR139; log [Compound] M -8.5, listed as JNJ (S)): 37 % of JNJ-63533054 and 28 % of JNJ-63533054 and 33 % of JNJ-63533054; Ca2+ signal (% of JNJ-63533054) (GPR139; log [Compound] M -9.0, listed as JNJ (S)): 13 % of JNJ-63533054 and 3.67 % of JNJ-63533054 and 12 % of JNJ-63533054

From PMC12775434, “Ultra-large virtual screening unveils potent agonists of the neuromodulatory orphan receptor GPR139” (Nature Communications, 2025)
